How the values were obtained:
DOCK1 (DHR-2 domain) = molecular target: T1, DOCK1 (DHR-2 domain) (Homo sapiens, UniProt Q14185); assay: In vitro GEF assay: Rac activation by DOCK1 DHR-2 domain; assay type: biochemical, mice and humans; details: in words
T1 construct: polypeptide fragments corresponding to the DHR-2 domain of DOCK1 or DOCK2 from mice and humans; Histidine-SUMO (N); made in house; host or cells: E. coli Arctic express (DE3)
T1 sequence (Q14185 1207-1617 limits assumed): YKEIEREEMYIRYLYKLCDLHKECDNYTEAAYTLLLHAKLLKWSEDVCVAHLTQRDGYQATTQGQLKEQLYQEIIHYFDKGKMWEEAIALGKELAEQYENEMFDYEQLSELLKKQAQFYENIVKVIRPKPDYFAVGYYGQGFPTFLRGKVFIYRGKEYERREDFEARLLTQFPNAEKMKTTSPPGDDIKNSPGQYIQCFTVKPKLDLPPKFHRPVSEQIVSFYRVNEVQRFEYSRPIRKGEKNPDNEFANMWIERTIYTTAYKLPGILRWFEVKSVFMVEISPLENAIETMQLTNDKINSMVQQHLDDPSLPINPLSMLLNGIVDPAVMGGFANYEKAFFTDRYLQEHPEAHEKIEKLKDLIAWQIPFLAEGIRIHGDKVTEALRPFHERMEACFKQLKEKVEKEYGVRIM
Procedure, shortened: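 Human/mouse His-SUMO DHR-2 fragment preincubated 20 min at RT with compound (1% DMSO) in MES buffer pH 7.0 with 20 μM GDP, then added to GDP-loaded GST-Rac (15 μM) plus 3.6 μM Bodipy-FL-GTP at 30° C. Initial velocity (0–10 s fluorescence slope, ex 488/em 514 nm) vs DMSO control gave IC50.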

[1] = test system: CCL21-stimulated T cells (mouse spleen cells); assay: T lymphocyte migration towards CCL21 (Transwell); assay type: cell-based; details: in words, 2-hour incubation
Experimental: In view of the above, the effect of RT-22 (Production Example 1A), which serves as a representative of the compounds of the present invention, on the lymphocyte migration was studied. Specifically, mouse spleen cells (1×10^7 cells/mL) were first precultured at 37° C. for 1 hour in 0.5 mass % BSA-containing RPMI-1640 (Transwell medium), to which DMSO alone or DMSO in which a predetermined concentration of each test compound was dissolved was added. Subsequently, 500 μL of Transwell medium containing 300 ng/mL of CCL21 and DMSO in which a predetermined concentration of each test compound was dissolved was added to a 24-well plate. Then, Transwell inserts (Corning, pore size: 5 μm) were placed in the wells, into which the precultured mouse spleen cells were loaded at 1×10^6 cells/100 μL.
After 2-hour incubation at 37° C., the cells that migrated to the lower chamber were collected and stained with PE-labeled anti-Thy1.2 antibody (53-2-1, BD Pharmingen) and APC-labeled anti-B220 antibody (RA-6B2, eBioscience). The percentage (%) of the migrated cells was calculated by dividing the number of Thy1.2^+ cells (T cells) in the lower chamber by the number of Thy1.2^+ cells (T cells) placed into the Transwell inserts.

DOCK1-inhibiting activity compared with TBOPP (DOCK1 (DHR-2 domain); GEF assay): higher than those of TBOPP
selective inhibitory activity against DOCK1 compared to TBOPP (DOCK1 (DHR-2 domain); GEF assay): higher than those of TBOPP
SMILES: COC(=O)c1cc(S(=O)(=O)N2CCCC2)cn1CC(=O)c1ccc(-c2cccc(C(F)(F)F)c2)cc1 [RT-22, methyl 1-(2-oxo-2-(3′-(trifluoromethyl)-[1,1′-biphenyl]-4-yl)ethyl)-4-(pyrrolidin-1-yl-sulfonyl)-1H-pyrrole-2-carboxylate]
selective inhibitory activity against DOCK1 versus DOCK2 (DOCK1 (DHR-2 domain); GEF assay DOCK1 vs DOCK2 DHR-2 domain): higher selective inhibitory activity against DOCK1 than against DOCK2
migration of CCL21-stimulated T cells [1]: no effect
